Entries after “also recorded” stand apart in the source; their conditions may differ.
tested on: NCI-60 cell lines; format: cell-based, human

Substance | Cell Line (NCI-60 cell line the peptide and its motif are associated with) | Cell Line the peptide is associated with (peptide recovered from phage library selection on this NCI-60 cell line) | Cell Line with which the peptide (and its tripeptide motif) is associated | Cell Line (NCI-60 cell line the peptide is associated with)
RAVLELW | SK-MEL-28 Melanoma | – | – | –
PLLRQQL | – | ACHN Renal | – | –
LYMGGSH | – | TK-10 Renal | – | –
LAGSRVS | OVCAR-4 Ovarian | – | – | –
FRASLQY | – | – | Hop-62-Lung | –
GSVSDRF | – | – | – | SF-268 CNS
GGRAIGA | – | – | Hop-92-Lung | –
VALGVSS | – | T-47D Breast | – | –
NEFLGRL | – | – | – | HCT-116 Colon
NLRGSRS | SK-MEL-2 Melanoma | – | – | –
GLRPHGA | UACC 257 Melanoma | – | – | –
SVSGAGS | OVCAR-5 Ovarian | – | – | –
TCGGRSY | SK-MEL-2 Melanoma | – | – | –
GRAGGNG | M14 Melanoma | – | – | –
ARSSIVR | – | – | – | SF-268 CNS
CGEGLVV | DU-145 Prostate | – | – | –
LLRLSLA | – | – | H23-Lung | –
DTPAGRL | – | MDA-MB-231 Breast | – | –
HAAVEPS | OVCAR-5 Ovarian | – | – | –
AGRIASK | – | – | – | HT-29 Colon
RVVGAVL | – | ACHN Renal | – | –
RSSSGSG | – | TK-10 Renal | – | –
GAGGVDV | 786-0 Renal | – | – | –
AVRGVAR | – | – | HL-60-Leukemia | –
ARNAASP | – | – | A549-Lung | –

Substance | Cell Line (NCI-60 cell line the peptide and its motif are associated with) | Cell Line the peptide is associated with (peptide recovered from phage library selection on this NCI-60 cell line) | Cell Line with which the peptide (and its tripeptide motif) is associated | Cell Line (NCI-60 cell line the peptide is associated with)
FLHMRLS | M14 Melanoma | – | – | –
SGAGSVS | OVCAR-5 Ovarian | – | – | –
PYYNGVR | IGROV1 Ovarian | – | – | –
FLRVGEL | – | – | Hop-62-Lung | –
LSERRGV | – | – | – | SF-295 CNS
YVGGRLR | OVCAR-5 Ovarian | – | – | –
HFIRGSV | – | – | – | HT-29 Colon
IGSGVGV | – | NCI/ADR-RES Breast | – | –
LRVGIGY | – | – | H23-Lung | –
RASIGIE | UACC 257 Melanoma | – | – | –
VAGRVGI | MALME-3M Melanoma | – | – | MALME-3M Melanoma
DFTLGSS | – | MDA-MB-231 Breast | – | –
HLRGRGV | – | – | EKVX-Lung | –
VRPRAVL | UACC62 Melanoma | – | – | –
DRQLAGR | – | HS 578 T Breast | – | –
FGGRSLS | – | – | – | SNB-75 CNS
RSSSSTR | – | – | – | SNB-75 CNS
AVWRLSH | – | – | H322-Lung | –
VGSVGLG | – | – | Hop-62-Lung | –
RGARVSA | – | – | Molt-4-Leukemia | –
VHSLRAS | UACC 257 Melanoma | – | – | –
GSGRQLP | – | BT-549 Breast | – | –
SARLSHV | UACC 257 Melanoma | – | – | –
GSVFGTP | – | UO31 Renal | – | –
PGSSFVG | – | – | – | HCT-15 Colon

Substance | Cell Line (NCI-60 cell line the peptide and its motif are associated with) | Cell Line the peptide is associated with (peptide recovered from phage library selection on this NCI-60 cell line) | Cell Line with which the peptide (and its tripeptide motif) is associated | Cell Line (NCI-60 cell line the peptide is associated with)
GAVNTPA | SK-MEL-2 Melanoma | – | – | –
RAGSRVQ | – | – | – | SF-295 CNS
SLRSDGA | – | – | – | HCT-15 Colon
SYFRAGR | – | – | H23-Lung | –
FEGGRSG | M14 Melanoma | – | – | –
GSSRVRW | – | – | – | HCT-15 Colon
AGSQSWE | – | – | A549-Lung | –
LGRVHVW | – | – | – | HT-29 Colon
LSGSVLQ | – | – | – | HCT-116 Colon
RGVNYRS | – | RXF393 Renal | – | –
FLLSRSA | – | NCI/ADR-RES Breast | – | –
QGRVNVK | – | – | H226-Lung | SNB-19 CNS; also recorded: SF-539 CNS
GGVSRMR | – | CAIK-1 Renal | – | –
FDPGGLR | – | SN12C Renal | – | –
GLVSAFY | – | – | Hop-62-Lung | –
SGGAVHF | – | – | SR Leukemia | –
GLGNRPT | – | – | RPMI-8226-Leukemia | –
VSSTARG | – | – | – | MALME-3M Melanoma
VRASSKR | OVCAR-5 Ovarian | – | – | –
AAGRAGC | – | – | H322-Lung | –
SLGGRTF | – | – | – | SNB-75 CNS
YLLRALG | – | – | – | SF-268 CNS
AGGTDRT | – | MDA-MB-231 Breast | – | –
WIWRAVS | – | – | – | SF-268 CNS
GKGMGLG | OVCAR-5 Ovarian | – | – | –

Substance | Cell Line (NCI-60 cell line the peptide and its motif are associated with) | Cell Line the peptide is associated with (peptide recovered from phage library selection on this NCI-60 cell line) | Cell Line with which the peptide (and its tripeptide motif) is associated | Cell Line (NCI-60 cell line the peptide is associated with)
ASLPVLD | M14 Melanoma | – | – | –
LVGSSRV | SK-OV-3-3 Ovarian | – | – | –
GHSERLS | – | T-47D Breast | – | –
GRVHLMP | – | – | Hop-92-Lung | –
REEFAGR | – | – | SR Leukemia | –
ARAMGLR | – | – | Hop-62-Lung | –
GGRRGTS | – | MCF-7 Breast | – | –
SQFGPSF | SK-OV-3-3 Ovarian | – | – | –
DGVSPLW | – | TK-10 Renal | – | –
GGSAWWG | DU-145 Prostate | – | – | –
FGLRMSN | – | ACHN Renal | – | –
RARTGGS | – | – | – | SNB-75 CNS
MRGSGRN | – | – | – | KM-12C Colon
PGKRGVQ | – | – | H460-Lung | –
WGAGLDA | OVCAR-4 Ovarian | – | – | –
MLGSASL | – | A498 Renal | – | –
GLVGWGI | – | BT-549 Breast | – | –
GGRSWVN | – | – | RPMI-8226-Leukemia | –
HSGVSHG | – | – | RPMI-8226-Leukemia | –
LGGARGV | – | MDA-MB-231 Breast | – | –
PRASDIL | – | BT-549 Breast | – | –
LLGAGTP | IGROV1 Ovarian | – | – | –
MERVAGR | – | SN12C Renal | – | –

Reference: US7781565B2 (priority 2006, dated 2010)
